Laboratory results taken from PubChem BioAssay AID179 (DTP/NCI, 2004).
pEC50, pIC50: −log10 of the molar value. Activity calls are given as the source filed them.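 How the source made its calls: active means compounds giving half or more protection of infected cells from virus-caused growth loss, again on retest; inactive means the rest.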

Tested on: CEM cells HIV-1 protection, formazan growth assay
Test: NCI AIDS Antiviral Assay
Conditions: for pIC50: measured here: growth of uninfected CEM cells
Outline: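 Soluble formazan readout of cell growth; CEM cells ± HIV-1; 5 drug concs. ≥50% protection → retest; ≥50% again = moderately active; reproducible 100% = confirmed active.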

Cc1c(N)nc(C2CC(=O)N2CC(N)C(N)=O)nc1C(=O)NC(C(=O)NC(C)C(O)C(C)C(=O)NC(C(=O)NCCc1nc(-c2nc(C(=O)NCCNCC(C)O)cs2)cs1)C(C)O)C(OC1OC(CO)C(O)C(O)C1OC1OC(CO)C(O)C(OC(N)=O)C1O)c1cnc[nH]1 (stereo not drawn)
outcome: inactive

O=S1c2ccccc2N=C(c2ccc3ccccc3c2)CC1c1ccccc1 (stereo not drawn)
pEC50: < 4.72 | pIC50: < 4.72

CC(C)=CC1CC(=O)C1(C)Sc1ccccc1 (stereo not drawn)
pEC50: < 4.39 | pIC50: < 4.39

O=C(OCCN=c1c2ccccc2ccc2ccccc12)c1ccccc1
pEC50: < 3.70 | pIC50: 3.92

CC[C@@H]1CN2CCc3c([nH]c4ccccc34)[C@@H]2C[C@@H]1/C(=C\OC)C(=O)OC
pEC50: < 4.19 | pIC50: < 4.19

CCOC(=O)C(C(=O)c1ccccc1)C(=O)c1ccccc1
pEC50: < 4.34 | pIC50: < 4.34

FC(F)(F)c1nc2c(ccc3[nH]c4c(-c5ccccc5)nccc4c32)[nH]1
pEC50: < 4.55 | pIC50: < 4.55

CC(=O)NC(CCCCN(Cc1ccccc1)C(=O)NCCCl)C(=O)NCc1ccccc1 (stereo not drawn)
pEC50: < 3.28 | pIC50: 3.45

Cn1c2ccc(Cl)cc2c2oc(-c3nn[nH]n3)cc(=O)c21
pEC50: < 3.70 | pIC50: 3.76

O=c1c(SCc2cccc(F)c2)c(SCc2cccc(F)c2)cnn1-c1ccccc1
pEC50: < 4.52 | pIC50: 4.66

Cc1cc(C)cc(Nc2cc(=O)[nH]c(=O)[nH]2)c1
pEC50: < 3.70 | pIC50: < 3.70

Oc1cc2c(cc1O)-c1[nH]ncc1CC2
pEC50: < 4.17 | pIC50: 4.48

O=c1[nH]n(CCc2ccccn2)c(=O)c2ccccc12
pEC50: < 3.70 | pIC50: < 3.70

CC1(C)CNC(=S)S1
pEC50: < 3.47 | pIC50: < 3.47

Cc1ccc2cc(N)c3ccc(C)nc3c2n1
pEC50: < 5.70 | pIC50: 6.51

COc1ccc2c(c1)C=C(C(C)(C)C)NS2(=O)=O
pEC50: < 4.01 | pIC50: < 4.01

CC(C(=O)O)c1ccc(C(=O)c2cccs2)cc1 (stereo not drawn)
pEC50: < 3.70 | pIC50: < 3.70

CC(=O)OC(C)(C)/C=C/C(=O)[C@](C)(O)[C@H]1[C@H](O)C[C@@]2(C)[C@@H]3CC=C4[C@@H](C=C(OC5OC(CO)C(O)C(O)C5O)C(=O)C4(C)C)[C@]3(C)C(=O)C[C@]12C (stereo partly drawn)
pEC50: < 3.70 | pIC50: 5.01

N#CCN1CCN(CC#N)CCN(CC#N)CCN(CC#N)CC1
pEC50: < 3.70 | pIC50: 4.55

O=C(O)c1ccccc1C(c1cc(Br)c(O)c(Br)c1)c1cc(Br)c(O)c(Br)c1
outcome: inactive

COc1ccc(CC2COC(=O)[C@@H]2Cc2cccc(O)c2)cc1OC (stereo partly drawn)
pEC50: < 3.70 | pIC50: 3.81

N#Cc1c(N)sc(=S)c2c1CCCC2
pEC50: < 4.65 | pIC50: < 4.65

O=C1CCC(=O)N2CCCCN12
pEC50: < 3.39 | pIC50: < 3.39

O=C1Nc2cc([N+](=O)[O-])ccc2C(=O)N2CCC[C@@H]12
pEC50: < 3.70 | pIC50: < 3.70

O=C(Nc1cccc(Cl)c1)C(=O)C(C(=O)c1ccc2ccccc2c1)C1OC(=O)c2ccccc21 (stereo not drawn)
pEC50: < 4.13 | pIC50: 4.47

CC(OC(C)(C)C)[C@H](NC(=O)OC(C)(C)C)C(=O)O (stereo partly drawn)
pEC50: < 3.56 | pIC50: < 3.56

C1=c2ccccc2=C2C(=C(c3ccccc3)C(c3ccccc3)=NN2c2ccccc2)S1
pEC50: < 5.33 | pIC50: < 5.33

COc1ccc(CCn2cncn2)cc1
pEC50: < 2.98 | pIC50: < 2.98

C=C(C(N)=O)c1ccc([N+](=O)[O-])o1
pEC50: < 3.70 | pIC50: 5.46

CC(=O)Nc1ccccc1C[P+](c1ccccc1)(c1ccccc1)c1ccccc1
pEC50: < 3.70 | pIC50: < 3.70

CC(=O)OCC(=O)[C@@]12OC(C)(C)O[C@@H]1C[C@H]1[C@@H]3CC(C=O)=C4C=C(OCCCl)CC[C@]4(C)[C@@]3(F)[C@@H](O)C[C@@]12C
pEC50: < 3.70 | pIC50: 5.19

CC[C@](C)(O)C(=O)O[C@H]1C(=O)O[C@@H]2C[C@H]3C(C)=CC(=O)[C@@H](O)[C@]3(C)[C@H]3[C@@]4(O)OC[C@]32[C@@H]1[C@@H](C)[C@H]4O
outcome: inactive

CC(O)CS(=O)(=O)O (stereo not drawn)
pEC50: < 3.70 | pIC50: < 3.70

CC(=O)OCC(OC(C)=O)C(OC(C)=O)C(/C=N/N(C(C)=O)S(=O)(=O)c1ccc(/C=C2\NC(=O)NC2=O)cc1)OC(C)=O (stereo not drawn)
pEC50: < 3.70 | pIC50: 3.98

Brc1ccc2c(ccc3nc4nnnn4nc32)c1
pEC50: < 4.76 | pIC50: < 4.76

COc1ccccc1CO[C@]1(C)CNCC(C)(C)NC(=O)[C@@](C)(OCc2ccccc2OC)CNCC(C)(C)NC1=O
pEC50: < 3.70 | pIC50: < 3.70

O=C(O)CN(CCN(CC(=O)O)CC(=O)O)CCN(CC(=O)O)CC(=O)O
pEC50: < 3.70 | pIC50: < 3.70

CCC(=O)OCNC(=O)NNC(=O)CCCC(=O)NNC(=O)NCOC(=O)CC
pEC50: < 3.70 | pIC50: < 3.70

CCN(CC)/C(Sc1ccccc1)=C(\C(Cl)=C(Cl)Cl)[N+](=O)[O-]
pEC50: < 3.70 | pIC50: 4.91

COc1ccc(C(C#N)NC23CC4CC(CC(C4)C2)C3)cc1 (stereo not drawn)
outcome: inactive

CC(=O)C1(O)Cc2c(O)c3c(c(O)c2C(OC2CC(N)C(O)C(C)O2)C1)C(=O)c1ccccc1C3=O (stereo not drawn)
pEC50: < 3.47 | pIC50: 6.97

Cc1ccc(Cl)c(-c2nc3cc(Cl)c(Cl)cc3[nH]2)c1
pEC50: < 4.22 | pIC50: < 4.22

Cc1cc2c(C)n(Cc3ccc(Cl)cc3Cl)nc2c(C(=O)O)c1C
pEC50: < 3.30 | pIC50: 4.08

Cc1cn(C2CC(N=[N+]=[N-])C(COC(=O)CCCCCCCCCCCBr)O2)c(=O)[nH]c1=O (stereo not drawn)
outcome: active | pIC50: 4.43

O=C(OC[C@H]1C[C@H]2C(=O)OCCC[C@H]2O1)c1ccccc1
pEC50: < 3.70 | pIC50: < 3.70

CCC(=O)C(CCN1CCC2(CCCc3ccccc32)CC1)(c1ccccc1)c1ccccc1
pEC50: < 3.70 | pIC50: 5.18

CC(=O)OCC12CCC(C)=CC1OC1C3(O)N=C(C)OC3C2(C)C12CO2 (stereo not drawn)
pEC50: < 3.70 | pIC50: 7.18

O=c1c(SCc2ccccc2)c(SCc2ccccc2)cnn1-c1ccccc1
pEC50: < 4.62

Cc1cc2c(C(C)C)c(O)c(O)c(C=O)c2c(O)c1-c1c(C)c(N(c2cccc3ccccc23)c2cccc3ccccc23)c2c(C(C)C)c(O)c(O)c(C=O)c2c1O
outcome: inactive

C[N+]1(C)C/C(=C/c2ccc(F)cc2)C(=O)/C(=C\c2ccc(F)cc2)C1
pEC50: < 3.27 | pIC50: 4.01

COc1cc2c(cc1O)C(Cc1ccc(Oc3cc(CC4c5cc(O)c(OC)cc5CCN4C)ccc3O)cc1)N(C)CC2 (stereo not drawn)
outcome: inactive

NC(=S)N/N=C(\Cc1nc2ccc(Cl)cc2[nH]c1=O)C(=O)Nc1ccc(Cl)cc1
pEC50: < 4.38 | pIC50: < 4.38

CCCc1[nH]c(SCCCCCCCCSc2nc(-c3ccc(F)cc3)c(CCC)[nH]2)nc1-c1ccc(F)cc1
pEC50: < 5.03 | pIC50: < 5.03

C=C1C2CC[C@@]3(CC[C@@H]4[C@@]5(C)CCC[C@@]4(CN4CCO[C@H]45)[C@@H]3C2)[C@@H]1O
outcome: inactive

O=[N+]([O-])c1ccccc1S(=O)(=O)c1cc(Cl)cc2c1NCCC2
pEC50: < 3.82 | pIC50: 4.54

OCC(O)C(OC1OC(CO)C(O)C(O)C1O)C(O)C(/C=N\Nc1ccccc1)=N/Nc1ccccc1 (stereo not drawn)
pEC50: < 3.70 | pIC50: 5.31

CC1=C(C(=O)Nc2ccc(Cl)c(Cl)c2)C(c2ccc([N+](=O)[O-])cc2)C(C(=O)Nc2ccc(Cl)c(Cl)c2)=C(C)N1
pEC50: < 5.06 | pIC50: 5.25

COC(=O)C1=C(C(=O)OC)C(C(=O)OC)C(C(=O)OC)C(C(=O)OC)(C(=O)OC)C(C(=O)OC)=C1C(=O)OC (stereo not drawn)
outcome: inactive

CCCCCCCCCCC(c1ccc(O)c(C(=O)O)c1)c1ccc(O)c(C(=O)O)c1
pEC50: < 3.35 | pIC50: 3.97

Cc1ccc(NC(=O)CC(=O)n2nc(C)c(N=Nc3ccccc3C(=O)O)c2C)cc1
pEC50: < 3.37 | pIC50: < 3.37

CC1(C)C(=O)c2ccccc2OC1N1CCN(C2Oc3ccccc3C(=O)C2(C)C)CC1 (stereo not drawn)
outcome: inactive

CC1(c2ccc(Cl)cc2)C2C(=O)NC(=O)C1C(=O)NC2=O (stereo not drawn)
pEC50: < 3.09 | pIC50: 3.31

CCCCCCCCCCCCC(CCCCCCCCCCCC)OP(=O)(O)O
outcome: inactive

C=C(CN(C)C)C(=O)c1ccc(C)cc1C
pEC50: < 3.70 | pIC50: 4.93

COc1nc(N(C)C)nc2c1n(C)c[n+]2C
pEC50: < 3.97 | pIC50: 4.90

c1ccc(-c2onc3c2CCCC3)cc1
outcome: inactive

CN=C1N[N+]2=CCSCC2(C)S1 (stereo not drawn)
outcome: inactive

CCOC(=O)C(C(=O)OCC)=C(N)C(Cl)(Cl)Cl
pEC50: < 3.70 | pIC50: 4.37

COC1=C(C(=O)OC(C)(C)C)C23CCCCC2(C(C(=O)OC(C)(C)C)=C(OC)C3C(=O)OC(C)(C)C)C1C(=O)OC(C)(C)C (stereo not drawn)
outcome: inactive

CCOP(=O)(OCC)C(N)c1ccc(OC)cc1 (stereo not drawn)
pEC50: < 3.09 | pIC50: < 3.09

COC(=O)c1ccccc1C1CN=NC12Cc1ccccc1C2=O (stereo not drawn)
pEC50: < 3.70 | pIC50: 3.92

CC1=C(C)CC2(CCCCC2=O)S(=O)C1 (stereo not drawn)
pEC50: < 2.96 | pIC50: 3.07

NC(=O)C(F)C(N)=O
pEC50: < 3.70 | pIC50: < 3.70

OCC(O)C(OC1OC(CO)C(O)C(O)C1O)c1nn(-c2ccc(Cl)cc2)c2nc3cc(Cl)c(Cl)cc3nc12 (stereo not drawn)
outcome: inactive

N#CC1=C2Oc3ccccc3N2C(c2ccc(Cl)cc2)C(C#N)=C1N (stereo not drawn)
pEC50: < 3.70 | pIC50: 4.44

O=C(Nn1cc(F)c(=O)[nH]c1=O)C12CC3CC(CC(C3)C1)C2
pEC50: < 3.70 | pIC50: 5.05

O=C(Nc1ncnc2c1ncn2C1OC(CO)CC1F)c1ccccc1 (stereo not drawn)
outcome: inactive

CN(C)CCNC(=O)c1cccc2c(Nc3ccc(S(N)(=O)=O)cc3)c3ccccc3nc12
outcome: inactive

COc1ccc(-c2cc(=O)c3c(OC)c(OC)c(OC)c(OC)c3o2)c(OC)c1
pEC50: < 3.70 | pIC50: 4.69

O=C1NC(=O)C(=Cc2ccccc2)C(=O)N1
pEC50: < 3.78 | pIC50: < 3.78

CCOC(CCNCC(OCC)OCC)OCC
pEC50: < 3.70 | pIC50: < 3.70

CC(C)/C(Cl)=N\OC(=O)Nc1cccc(F)c1
pEC50: < 3.70 | pIC50: 5.01

CCOC(=O)/C(C#N)=C/c1ccc(C)cc1
pEC50: < 3.92 | pIC50: < 3.92

c1ccc(C2=NOC3(c4ccccc4)SC4CCCCC4CN23)cc1 (stereo not drawn)
pEC50: < 4.97 | pIC50: < 4.97

CCCCN(CCCC)P(=S)(OCC)OCC
pEC50: < 3.70 | pIC50: < 3.70
